Assay results as given in patent EP4603105A1, “PHARMACEUTICAL COMPOSITION CONTAINING CYCLIC COMPOUND HAVING SELECTIVE KRAS INHIBITORY EFFECT AGAINST HRAS AND NRAS” (CHUGAI SEIYAKU KABUSHIKI KAISHA, priority 2022, dated 2024).

What was measured:
[1] = molecular target: GDP-bound NRAS wild-type protein (Homo sapiens, UniProt P01111); experiment: Binding to NRAS by surface plasmon resonance (SPR), KD and KD ratio to KRAS; settings: ratio of KD for GDP-bound NRAS wild-type protein to KD for KRAS
Method in brief: (§1)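 Affinity is measured by surface plasmon resonance at 30°C against captured, GDP-loaded RAS carrying a biotinylated Avi tag. Compounds are titrated by single-cycle kinetics, and KD comes from a 1:1 fit.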

HRAS wild-type protein = HRAS wild-type protein (Homo sapiens, UniProt P01112); experiment: Binding to HRAS by surface plasmon resonance (SPR), KD and KD ratio to KRAS; settings: ratio of KD for HRAS wild-type protein to KD for KRAS
HRAS wild-type protein, sequence (P01112 whole entry): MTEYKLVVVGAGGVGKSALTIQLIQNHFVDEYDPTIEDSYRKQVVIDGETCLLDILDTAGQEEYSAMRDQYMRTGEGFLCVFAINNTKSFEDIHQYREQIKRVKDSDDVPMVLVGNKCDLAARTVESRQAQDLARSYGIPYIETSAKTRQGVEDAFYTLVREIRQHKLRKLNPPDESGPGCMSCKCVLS
Method in brief: as §1

[2] = system: human lung cancer strain NCI-H441; type: cell-based
Method in brief: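 Readout: […] after the ATP-based reagent. Compound: serial dilutions in dimethyl sulfoxide.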

GDP-bound NRAS wild-type protein, sequence (P01111 whole entry): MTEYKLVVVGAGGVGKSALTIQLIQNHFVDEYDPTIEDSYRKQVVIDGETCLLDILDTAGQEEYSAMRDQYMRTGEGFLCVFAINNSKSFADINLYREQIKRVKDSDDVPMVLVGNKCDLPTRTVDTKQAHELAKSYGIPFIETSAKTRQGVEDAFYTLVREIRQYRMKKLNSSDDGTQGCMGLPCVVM

Row | SMILES | NRAS /KRAS [1] | HRAS /KRAS (HRAS wild-type protein) | IC50 [2] [nM]
1 | CC[C@H](C)[C@@H]1NC(=O)[C@H](CC(C)C)N(C)C(=O)C[C@@H](C(=O)N2CCOCC2)N(C)C(=O)[C@H](C2CCCC2)N(C)C(=O)C2(CCCC2)NC(=O)[C@@H]2CC(F)(F)CN2C(=O)[C@H](CCc2ccc(C(F)(F)F)c(Cl)c2)NC(=O)CN(C)C(=O)[C@H](Cc2ccc(F)cc2)N2CCCCC[C@@H](C2=O)N(C)C(=O)CN(C)C1=O [PP0966] | B (a compound having 3 or more and less than 10 is denoted as B) | B (a compound having 3 or more and less than 10 is denoted as B) | 34.6
2 | CC[C@H](C)[C@@H]1NC(=O)[C@H](CC(C)C)N(C)C(=O)C[C@@H](C(=O)N2CCOCC2)N(C)C(=O)[C@H](C2CCCC2)N(C)C(=O)C2(CCC2)NC(=O)[C@@H]2CCCN2C(=O)[C@H](CCc2ccc(C(F)(F)F)c(Cl)c2)NC(=O)CN(C)C(=O)[C@H](Cc2ccc(F)cc2)N2CCCCC[C@@H](C2=O)N(C)C(=O)CN(C)C1=O [PP0967] | B (a compound having 3 or more and less than 10 is denoted as B) | B (a compound having 3 or more and less than 10 is denoted as B) | 77.7
3 | CC[C@H](C)[C@@H]1NC(=O)[C@H](CC(C)C)N(C)C(=O)C[C@@H](C(=O)N2CCOCC2)N(CC)C(=O)[C@H](C2CCCC2)N(C)C(=O)C2(CCCC2)NC(=O)[C@@H]2CCCN2C(=O)[C@H](CCc2ccc(C(F)(F)F)c(Cl)c2)NC(=O)CN(C)C(=O)[C@H](Cc2ccc(F)cc2)N2CCCCC[C@@H](C2=O)N(C)C(=O)CN(C)C1=O [PP0970] | B (a compound having 3 or more and less than 10 is denoted as B) | B (a compound having 3 or more and less than 10 is denoted as B) | 340
4 | CC[C@H](C)[C@@H]1NC(=O)[C@H](CC(C)C)N(C)C(=O)C[C@@H](C(=O)N(C)C)N(C)C(=O)[C@H](C2CCCC2)N(C)C(=O)C2(CCC2)NC(=O)[C@@H]2CC(F)(F)CN2C(=O)[C@H](CCc2ccc(C(F)(F)F)c(Cl)c2)NC(=O)CN(C)C(=O)[C@H](Cc2ccc(F)cc2)N2CCCCC[C@@H](C2=O)N(C)C(=O)CN(C)C1=O [PP0973] | B (a compound having 3 or more and less than 10 is denoted as B) | B (a compound having 3 or more and less than 10 is denoted as B) | 11.6
5 | CCO[C@@H]1C[C@H]2C(=O)NC3(CCC3)C(=O)N(C)[C@@H](C3CCCC3)C(=O)N(CCC3CCCC3)[C@H](C(=O)N(C)C)CC(=O)N(C)[C@@H](CC(C)C)C(=O)N[C@@H]([C@@H](C)CC)C(=O)N(C)CC(=O)N(C)[C@H]3CCCCCN(C3=O)[C@@H](Cc3ccc(F)cc3)C(=O)N(C)CC(=O)N[C@@H](CCc3ccc(C(F)(F)F)c(Cl)c3)C(=O)N2C1 [PP0976] | B (a compound having 3 or more and less than 10 is denoted as B) | B (a compound having 3 or more and less than 10 is denoted as B) | 1180
6 | CC[C@H](C)[C@@H]1NC(=O)[C@H](CC(C)C)N(C)C(=O)C[C@@H](C(=O)N(C)C)N(CCC2CCCC2)C(=O)[C@H](C2CCCC2)N(C)C(=O)C2(CCC2)NC(=O)[C@@H]2CC(F)(F)CN2C(=O)[C@H](CCc2ccc(C(F)(F)F)c(Cl)c2)NC(=O)CN(C)C(=O)[C@H](Cc2ccc(F)cc2)N2CCCCC[C@@H](C2=O)N(C)C(=O)CN(C)C1=O [PP0977] | B (a compound having 3 or more and less than 10 is denoted as B) | A (a compound having 10 or more and less than 20 is denoted as A) | 1120
7 | CCO[C@@H]1C[C@H]2C(=O)NC3(CCC3)C(=O)N(C)[C@@H](C3CCCC3)C(=O)N(C)[C@H](C(=O)N(C)C)CC(=O)N(C)[C@@H](CC)C(=O)N[C@@H]([C@@H](C)CC)C(=O)N(C)CC(=O)N(C)[C@H]3C/C=C\CCN(C3=O)[C@@H](Cc3ccc(C(F)(F)F)cc3)C(=O)N(C)CC(=O)N[C@@H](CCc3ccc(C(F)(F)F)c(Cl)c3)C(=O)N2C1 [PP0978] | A (a compound having 10 or more and less than 20 is denoted as A) | B (a compound having 3 or more and less than 10 is denoted as B) | 22.7
8 | CCO[C@@H]1C[C@H]2C(=O)NC3(CCC3)C(=O)N(C)[C@@H](C3CCCC3)C(=O)N(CC)[C@H](C(=O)N(C)C)CC(=O)N(C)[C@@H](CC)C(=O)N[C@@H]([C@@H](C)CC)C(=O)N(C)CC(=O)N(C)[C@H]3C/C=C\CCN(C3=O)[C@@H](Cc3ccc(C(F)(F)F)cc3)C(=O)N(C)CC(=O)N[C@@H](CCc3cc(F)c(C(F)(F)F)c(F)c3)C(=O)N2C1 [PP0980] | A (a compound having 10 or more and less than 20 is denoted as A) | B (a compound having 3 or more and less than 10 is denoted as B) | 223
9 | CCO[C@@H]1C[C@H]2C(=O)NC3(CCC3)C(=O)N(C)[C@@H](C3CCCC3)C(=O)N(CCC3CCCC3)[C@H](C(=O)N3CCOCC3)CC(=O)N(C)[C@@H](CC)C(=O)N[C@@H]([C@@H](C)CC)C(=O)N(C)CC(=O)N(C)[C@H]3C/C=C\CCN(C3=O)[C@@H](Cc3ccc(C(F)(F)F)cc3)C(=O)N(C)CC(=O)N[C@@H](CCc3cc(F)c(C(F)(F)F)c(F)c3)C(=O)N2C1 [PP0981] | AA (a compound having 20 or more is denoted as AA) | A (a compound having 10 or more and less than 20 is denoted as A) | 797
10 | CCO[C@@H]1C[C@H]2C(=O)NC3(CCC3)C(=O)N(C)[C@@H](C3CCCC3)C(=O)N(CCC3CCCC3)[C@H](C(=O)N(C)C)CC(=O)N(C)[C@@H](CC)C(=O)N[C@@H]([C@@H](C)CC)C(=O)N(C)CC(=O)N(C)[C@H]3C/C=C\CCN(C3=O)[C@@H](Cc3ccc(C(F)(F)F)cc3)C(=O)N(C)CC(=O)N[C@@H](CCc3cc(F)c(C(F)(F)F)c(F)c3)C(=O)N2C1 [PP0982] | AA (a compound having 20 or more is denoted as AA) | A (a compound having 10 or more and less than 20 is denoted as A) | 372
11 | CCO[C@@H]1C[C@H]2C(=O)NC3(CCC3)C(=O)N(C)[C@@H](C3CCCC3)C(=O)N(C)[C@H](C(=O)N(C)C)CC(=O)N(C)[C@@H](CC)C(=O)N[C@@H]([C@@H](C)CC)C(=O)NCC(=O)N(C)[C@H]3C/C=C\CCN(C3=O)[C@@H](Cc3ccc(C(F)(F)F)cc3)C(=O)N(C)CC(=O)N[C@@H](CCc3cc(F)c(C(F)(F)F)c(F)c3)C(=O)N2C1 [PP0983] | A (a compound having 10 or more and less than 20 is denoted as A) | A (a compound having 10 or more and less than 20 is denoted as A) | 19.5
12 | CCO[C@@H]1C[C@H]2C(=O)NC3(CCC3)C(=O)N(C)[C@@H](C3CCCC3)C(=O)N(C)[C@H](C(=O)N(C)C)CC(=O)N(C)[C@@H](CC)C(=O)N[C@@H]([C@@H](C)CC)C(=O)N3CC[C@H]3C(=O)N(C)[C@H]3C/C=C\CCN(C3=O)[C@@H](Cc3ccc(C(F)(F)F)cc3)C(=O)N(C)CC(=O)N[C@@H](CCc3cc(F)c(C(F)(F)F)c(F)c3)C(=O)N2C1 [PP0984] | A (a compound having 10 or more and less than 20 is denoted as A) | A (a compound having 10 or more and less than 20 is denoted as A) | 64.6
13 | CCO[C@@H]1C[C@H]2C(=O)NC3(CCC3)C(=O)N(C)[C@@H](C3CCCC3)C(=O)N(C)[C@H](C(=O)N(C)C)CC(=O)N(C)[C@@H](CC)C(=O)N[C@@H]([C@@H](C)CC)C(=O)N(C)CC(=O)N(C)[C@H]3CCCCN(C3=O)[C@@H](Cc3ccc(C(F)(F)F)cc3)C(=O)N(C)CC(=O)N[C@@H](CCc3cc(Cl)c(C(F)(F)F)c(Cl)c3)C(=O)N2C1 [PP0985] | C (A compound having a KD ratio of 0.1 or more and less than 3 is denoted as C) | C (A compound having a KD ratio of 0.1 or more and less than 3 is denoted as C) | 12.2
14 | CCO[C@@H]1C[C@H]2C(=O)NC3(CCC3)C(=O)N(C)[C@@H](C3CCCC3)C(=O)N(C)[C@H](C(=O)N(C)C)CC(=O)N(C)[C@@H](CC)C(=O)N[C@@H]([C@@H](C)CC)C(=O)N(C)CC(=O)N(C)[C@H]3CCCCN(C3=O)[C@@H](Cc3ccc(C(F)(F)F)cc3)C(=O)N(C)CC(=O)N[C@@H](CCc3ccc(OC(F)F)c(F)c3)C(=O)N2C1 [PP0986] | C (A compound having a KD ratio of 0.1 or more and less than 3 is denoted as C) | C (A compound having a KD ratio of 0.1 or more and less than 3 is denoted as C) | 45.9
15 | CCO[C@@H]1C[C@H]2C(=O)NC3(CCC3)C(=O)N(C)[C@@H](C3CCCC3)C(=O)N(C)[C@H](C(=O)N(C)C)CC(=O)N(C)[C@@H](CC)C(=O)N[C@@H]([C@@H](C)CC)C(=O)N(C)CC(=O)N(C)[C@H]3CCCCN(C3=O)[C@@H](Cc3ccc(C(F)(F)F)cc3)C(=O)N(C)CC(=O)N[C@@H](CCc3ccc(Cl)c(Cl)c3)C(=O)N2C1 [PP0987] | C (A compound having a KD ratio of 0.1 or more and less than 3 is denoted as C) | C (A compound having a KD ratio of 0.1 or more and less than 3 is denoted as C) | 6.8
16 | CCO[C@@H]1C[C@H]2C(=O)NC3(CCC3)C(=O)N(C)[C@@H](C3CCCC3)C(=O)N(C)[C@H](C(=O)N(C)C)CC(=O)N(C)[C@@H](CC)C(=O)N[C@@H]([C@@H](C)CC)C(=O)N(C)CC(=O)N(C)[C@H]3CCCCN(C3=O)[C@@H](Cc3ccc(C(F)(F)F)cc3)C(=O)N(C)CC(=O)N[C@@H](CCc3cc(Cl)c(Cl)c(Cl)c3)C(=O)N2C1 [PP0988] | C (A compound having a KD ratio of 0.1 or more and less than 3 is denoted as C) | B (a compound having 3 or more and less than 10 is denoted as B) | 10.3
